Assay results published in the NIST ThermoML archive (doi:10.1021/je700338t).

Assays:
[1] = xn = mol fraction of the nth substance listed; conditions: 298.15 K, 101 kPa, Liquid; for mass density: Vibrating tube method
[2] = refractive index (Na D-line) (dimensionless); xn = mol fraction of the nth substance listed; conditions: 298.15 K, 101 kPa, Liquid
[3] = 298.15 K, 101.33 kPa, Liquid
[4] = refractive index (Na D-line) (dimensionless); conditions: 298.15 K, 101.33 kPa, Liquid

CCCCn1cc[n+](C)c1.F[P-](F)(F)(F)(F)F [1-butyl-3-methylimidazolium hexafluorophosphate] + CC#N
Conditions	refractive index, [2]	viscosity, [1] [mPa·s]
x1 = 0.0496	1.3575	0.556
x1 = 0.1016	1.3687	0.864
x1 = 0.147	1.3754	1.187
x1 = 0.2022	1.3819	1.866
x1 = 0.2995	1.3902	3.792
x1 = 0.3524	1.3934	5.308
x1 = 0.4036	1.3959	7.674
x1 = 0.4337	1.3974	9.153
x1 = 0.4955	1.3998	14.44
x1 = 0.5892	1.4024	23.84
x1 = 0.6857	1.4048	40.69
x1 = 0.8046	1.4068	81.53
x1 = 0.8055	1.4069	86.27
x1 = 0.9176	1.4084	154.06

CCCCn1cc[n+](C)c1.F[P-](F)(F)(F)(F)F [1-butyl-3-methylimidazolium hexafluorophosphate] + C[S+](C)[O-]
Conditions	mass density, [1] [kg/m3]	refractive index, [2]	speed of sound, [1] [m/s]	viscosity, [1] [mPa·s]
x1 = 0.0011	1096.21	–	1484.8	–
x1 = 0.0024	1097.26	–	1484.9	–
x1 = 0.0187	1109.73	–	1483.5	–
x1 = 0.0321	1119.44	–	1482.4	–
x1 = 0.05	–	1.4676	–	2.749
x1 = 0.0552	1135.09	–	1480.5	–
x1 = 0.0635	1140.41	–	1479.9	–
x1 = 0.0996	1161.89	–	1477.3	–
x1 = 0.0997	–	1.4606	–	3.698
x1 = 0.1477	–	1.4546	–	4.962
x1 = 0.153	1189.47	–	1473.7	–
x1 = 0.1977	–	1.4491	–	6.489
x1 = 0.2381	1225.52	–	1469.4	–
x1 = 0.2995	–	1.4396	–	11.95
x1 = 0.3372	1258.28	–	1464.5	–
x1 = 0.3524	–	1.4361	–	16
x1 = 0.3997	–	1.4331	–	21.17
x1 = 0.4328	–	1.4309	–	24.61
x1 = 0.5018	–	1.4278	–	36.98
x1 = 0.5586	1309.44	–	1454.9	–
x1 = 0.598	–	1.4226	–	56.31
x1 = 0.7043	–	1.4182	–	83.73
x1 = 0.7791	1342.89	–	1448.2	–
x1 = 0.7812	–	1.4158	–	117.54
x1 = 0.893	–	1.4125	–	173.32
x1 = 0.925	1359.3	–	1444.7	–

CC#N [acetonitrile]
[3]
Conditions	mass density [kg/m3]	viscosity [mPa·s]
–	776.565	0.339

Conditions	refractive index	speed of sound [m/s]
[3], Sing-around technique in a fixed-path interferometer	–	1278.7
[4], Standard Abbe refractometry	1.3419	–

CCCCn1cc[n+](C)c1.F[P-](F)(F)(F)(F)F [1-butyl-3-methylimidazolium hexafluorophosphate] + CO
Conditions	refractive index, [2]	viscosity, [1] [mPa·s]
x1 = 0.0503	1.348	0.913
x1 = 0.0993	1.3636	1.483
x1 = 0.1517	1.371	2.331
x1 = 0.1969	1.3768	3.059
x1 = 0.3024	1.3872	6.057
x1 = 0.3531	1.3892	8.072
x1 = 0.4106	1.3941	11.03
x1 = 0.451	1.3961	13.52
x1 = 0.502	1.3986	17.29
x1 = 0.6015	1.4015	27.41
x1 = 0.7082	1.4045	45.95
x1 = 0.7989	1.4066	66.79
x1 = 0.8889	1.4078	107.94

C[S+](C)[O-] [dimethyl sulfoxide]
[3]
Conditions	mass density [kg/m3]	viscosity [mPa·s]
–	1095.3	1.961

Conditions	refractive index	speed of sound [m/s]
[3], Sing-around technique in a fixed-path interferometer	–	1485
[4], Standard Abbe refractometry	1.4769	–

CO [methanol]
[3]
Conditions	mass density [kg/m3]	viscosity [mPa·s]
–	786.654	0.54

Conditions	refractive index	speed of sound [m/s]
[3], Sing-around technique in a fixed-path interferometer	–	1102.9
[4], Standard Abbe refractometry	1.3269	–

CCCCn1cc[n+](C)c1.F[P-](F)(F)(F)(F)F [1-butyl-3-methylimidazolium hexafluorophosphate] + C1CCOC1
Conditions	mass density, [1] [kg/m3]	refractive index, [2]	speed of sound, [1] [m/s]	viscosity, [1] [mPa·s]
x1 = 0.0199	911.565	–	1279.2	–
x1 = 0.0376	936.57	–	1279.9	–
x1 = 0.0502	–	1.4084	–	0.75
x1 = 0.0737	979.097	–	1287.9	–
x1 = 0.0967	–	1.4117	–	1.14
x1 = 0.15	1055.63	–	1312.6	–
x1 = 0.1524	–	1.4125	–	1.732
x1 = 0.1999	–	1.4126	–	2.476
x1 = 0.2003	1095.84	–	1329.2	–
x1 = 0.2486	1129.41	–	1343.7	–
x1 = 0.2969	–	1.413	–	4.937
x1 = 0.3004	1159.97	–	1357.3	–
x1 = 0.3484	–	1.4128	–	6.979
x1 = 0.3491	1185.7	–	1368.6	–
x1 = 0.3994	–	1.4127	–	10.06
x1 = 0.4484	–	1.4126	–	14.54
x1 = 0.4634	1235.91	–	1390.5	–
x1 = 0.5028	–	1.4117	–	18.5
x1 = 0.5808	1276.69	–	1406.9	–
x1 = 0.6047	–	1.4115	–	33.63
x1 = 0.6941	1306.09	–	1418.7	–
x1 = 0.7016	–	1.411	–	52.84
x1 = 0.7996	1329.25	–	1427.8	–
x1 = 0.805	–	1.4105	–	90.82
x1 = 0.8991	1348.14	–	1435.7	–
x1 = 0.9595	–	1.4095	–	186.86

C1CCOC1 [tetrahydrofuran]
[3]
Conditions	mass density [kg/m3]	viscosity [mPa·s]
–	882.008	0.449

Conditions	refractive index	speed of sound [m/s]
[3], Sing-around technique in a fixed-path interferometer	–	1278.2
[4], Standard Abbe refractometry	1.405	–

CCCCn1cc[n+](C)c1.F[P-](F)(F)(F)(F)F [1-butyl-3-methylimidazolium hexafluorophosphate]
Conditions	mass density [kg/m3]	refractive index	speed of sound [m/s]	viscosity [mPa·s]
[3]	1366.07	–	1443.5	212.1
[4]	–	1.4095	–	–
